The substances below were run against T1, hSP-A (Homo sapiens, UniProt Q8IWL1+Q8IWL2) (assay: Binding inhibition assay (hSP-A binding to coated mannan)). Settings: GAGs 15 µM to 30 nM, 5 mM CaCl2 (Fig. 1G).
T1 construct: Human PAP patient, BAL isolated; from tissue; host or cells: bronchoalveolar lavage fluid of a patient with pulmonary alveolar proteinosis
Protocol: Following previously described assays ([41], [42]), 96-well plates (83.3924.005, Sarstaedt AG, Nümbrecht, Germany) were coated with 70 ng/well (total volume of 100 µL/well) of mannan (M7504, Sigma-Aldrich, St. Louis) dissolved in 0.1 M NaHCO3 buffer (pH 9.6) overnight at 4°C. After removal of the coating solution, wells were blocked with 100 µL of 5 mM Tris with 2% BSA (Serva, Heidelberg, Germany) at room temperature for 2 h. Plates were washed three times with 100 µL/well washing buffer (5 mM Tris, 0.9% NaCl, 0.05% Tween-20, and 5 mM CaCl2). Next, different concentrations of HA, HS, or CS ranging from 15 µM to 30 nM and hSP-A at 14 ng/well were added to washing buffer with 0.1% BSA. The plate was incubated for 2 h at room temperature to allow the protein to bind to either mannan or GAGs. After subsequent washing, as stated before, mannan-bound hSP-A was immunodetected by incubation with a specific anti-SP-A antibody (ab190087, Abcam, Cambridge, UK) at a 0.5 µg/mL concentration for 2 h at room temperature in washing buffer. After washing the excess of antibody, a secondary antibody conjugated with HRP (horseradish peroxidase) anti-goat (Abcam, ab 6885, Cambridge, UK) was added at 2 µg/mL for 1 h at room temperature. After washing, the color reaction was developed by adding 50 µL of TMB liquid substrate (T0440, Sigma-Aldrich, St. Louis). After 30 min, the reaction was stopped by adding 50 µL of Stop Reagent (S5814, Sigma-Aldrich, St. Louis) and the plate was read at 450 nm in a plate reader (FLUOstar Omega, BMG Labtech, Ortenberg, Germany).
The data of the binding inhibition assay were analyzed in GraphPad Prism 9.5.1 using the “normalize” function and fitting to the nonlinear regression dose-response inhibition. […] The fluorescence values from the collectin-based binding assay were normalized using the same “normalize” function in GraphPad, and the statistical test used was the “non-parametric Kruskal-Wallis” test. The statistical test used for the DMMB assay for GAG quantification was also the “non-parametric Kruskal-Wallis” test.

T1 sequence (Q8IWL2 21-248): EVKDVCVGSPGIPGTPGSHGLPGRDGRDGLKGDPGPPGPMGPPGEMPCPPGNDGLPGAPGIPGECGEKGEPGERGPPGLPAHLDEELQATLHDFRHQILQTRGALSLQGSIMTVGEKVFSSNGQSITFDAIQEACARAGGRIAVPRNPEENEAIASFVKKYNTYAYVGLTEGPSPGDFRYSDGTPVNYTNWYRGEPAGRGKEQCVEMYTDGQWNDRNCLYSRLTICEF
T1 sequence (Q8IWL1 21-248): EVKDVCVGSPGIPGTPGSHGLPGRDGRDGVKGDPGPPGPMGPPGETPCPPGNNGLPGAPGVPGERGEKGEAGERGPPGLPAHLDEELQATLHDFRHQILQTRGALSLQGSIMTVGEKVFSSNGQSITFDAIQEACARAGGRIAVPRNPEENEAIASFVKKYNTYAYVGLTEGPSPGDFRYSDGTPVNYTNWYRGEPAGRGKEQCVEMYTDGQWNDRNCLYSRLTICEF

hSP-A binding inhibition to mannan, in the µM range:
chondroitin sulfate sodium salt [CS]
hyaluronic acid sodium salt [HA]
heparan sulfate sodium [HS]
